Results as given in patent publication US7041785B1, “B1-bradykinin receptor antagonists and use thereof” (Université de Sherbrooke, priority 1996, dated 2006).

What was measured:
[1] = tested on: streptozotocin-induced diabetic mice; settings: mouse, in vivo
Description: Male C57BL/Ks mdb mice were injected with streptozotocin (40 mg/kg) for 5 consecutive days. […] Treatment with antagonists was started 3 days after STZ and lasted for 10 days. Plasma glucose was determined by the glucose oxidase method, and 13 days urinary samples were assayed for proteins, nitrites and kallikreins.
Male C57BL/Ksmdb mice, 3 month old were provided by National Institute of Genetic, Buenos Aires. The animals were housed at a constant room temperature, with a 12 h light-dark cycle.
Blood (50–60 ul) was collected from the tail vein of non fasting animals in heparinized capillary tubes. Blood samples were taken one day before starting the STZ injection and at the day 13, just before sacrifice. Blood samples were centrifuged and the plasma immediately diluted into the appropriate buffer. Plasma glucose was determined by a glucose oxidase method (the kit was obtained from Wiener, Argentina). […] Urinary volume was determined gravimetrically and urinary samples were assayed for proteins^45, nitrites^40 and kallikrein^47.
Streptozotocin was purchased from the Sigma Chem Co., St. Louis, Mo. […] The paranitroanilide (pNA) released by enzymatic action on the substrate was measured calorimetrically to determine kallikrein activity
All data were expressed as mean=S.E. Analysis of Variance (ANOVA) was performed to evaluate differences among the groups. p<0.05 was considered as significant.

BK-B1 receptor = molecular target: T1, BK-B1 receptor (Rattus norvegicus, UniProt P97583); experiment: Isometric contraction of portal vein segments from STZ-induced diabetic rats; assay type: cell-based; settings: P<0.001
T1 construct: Segments of the portal vein (a known preparation for BK studies) from these rats were mounted in organ baths; from tissue; host or cells: rat portal vein segments (STZ-diabetic and normal rats)
T1 sequence (P97583 1-337): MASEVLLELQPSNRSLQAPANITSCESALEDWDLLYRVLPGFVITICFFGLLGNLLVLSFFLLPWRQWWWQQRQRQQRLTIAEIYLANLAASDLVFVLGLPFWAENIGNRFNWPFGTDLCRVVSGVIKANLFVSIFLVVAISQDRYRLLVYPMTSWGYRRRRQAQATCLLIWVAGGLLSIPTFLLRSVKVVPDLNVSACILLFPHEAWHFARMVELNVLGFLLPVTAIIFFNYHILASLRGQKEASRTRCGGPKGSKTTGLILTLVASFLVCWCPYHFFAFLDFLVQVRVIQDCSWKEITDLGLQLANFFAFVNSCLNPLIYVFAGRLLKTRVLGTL
From the text: Capillary permeability is known to be selectively augmented in the streptozotocin (STZ) diabetic rat model^49. The vascular BK receptors in the STZ-induced diabetic rat was examined. Segments of the portal vein (a known preparation for BK studies) from these rats were mounted in organ baths for isometric contraction studies. The response to desArg^9BK, a specific BK–B1 receptor agonist, was enhanced by 118% in the diabetic tissue, compared to normal portal veins (0.48 vs 0.22g: P<0.001). […] HOE140, the BK–B2 receptor antagonist, had no effect on the diabetic portal vein abnormality. Evans blue (EB: 20 mg/kg), a marker of albumin extravasation, was injected to unanesthetized diabetic rats. […] Therefore, it was concluded that post-capillary hypercontractility to BK (via its B1 receptor) forces EB extravasation, and likely contributed to the diabetic vasculopathy.

[2] = molecular target: T2, angiotensin-converting enzyme (ACE) from rabbit lungs (Oryctolagus cuniculus, UniProt P12822); settings: cited from earlier work
T2 sequence (P12822 34-1310): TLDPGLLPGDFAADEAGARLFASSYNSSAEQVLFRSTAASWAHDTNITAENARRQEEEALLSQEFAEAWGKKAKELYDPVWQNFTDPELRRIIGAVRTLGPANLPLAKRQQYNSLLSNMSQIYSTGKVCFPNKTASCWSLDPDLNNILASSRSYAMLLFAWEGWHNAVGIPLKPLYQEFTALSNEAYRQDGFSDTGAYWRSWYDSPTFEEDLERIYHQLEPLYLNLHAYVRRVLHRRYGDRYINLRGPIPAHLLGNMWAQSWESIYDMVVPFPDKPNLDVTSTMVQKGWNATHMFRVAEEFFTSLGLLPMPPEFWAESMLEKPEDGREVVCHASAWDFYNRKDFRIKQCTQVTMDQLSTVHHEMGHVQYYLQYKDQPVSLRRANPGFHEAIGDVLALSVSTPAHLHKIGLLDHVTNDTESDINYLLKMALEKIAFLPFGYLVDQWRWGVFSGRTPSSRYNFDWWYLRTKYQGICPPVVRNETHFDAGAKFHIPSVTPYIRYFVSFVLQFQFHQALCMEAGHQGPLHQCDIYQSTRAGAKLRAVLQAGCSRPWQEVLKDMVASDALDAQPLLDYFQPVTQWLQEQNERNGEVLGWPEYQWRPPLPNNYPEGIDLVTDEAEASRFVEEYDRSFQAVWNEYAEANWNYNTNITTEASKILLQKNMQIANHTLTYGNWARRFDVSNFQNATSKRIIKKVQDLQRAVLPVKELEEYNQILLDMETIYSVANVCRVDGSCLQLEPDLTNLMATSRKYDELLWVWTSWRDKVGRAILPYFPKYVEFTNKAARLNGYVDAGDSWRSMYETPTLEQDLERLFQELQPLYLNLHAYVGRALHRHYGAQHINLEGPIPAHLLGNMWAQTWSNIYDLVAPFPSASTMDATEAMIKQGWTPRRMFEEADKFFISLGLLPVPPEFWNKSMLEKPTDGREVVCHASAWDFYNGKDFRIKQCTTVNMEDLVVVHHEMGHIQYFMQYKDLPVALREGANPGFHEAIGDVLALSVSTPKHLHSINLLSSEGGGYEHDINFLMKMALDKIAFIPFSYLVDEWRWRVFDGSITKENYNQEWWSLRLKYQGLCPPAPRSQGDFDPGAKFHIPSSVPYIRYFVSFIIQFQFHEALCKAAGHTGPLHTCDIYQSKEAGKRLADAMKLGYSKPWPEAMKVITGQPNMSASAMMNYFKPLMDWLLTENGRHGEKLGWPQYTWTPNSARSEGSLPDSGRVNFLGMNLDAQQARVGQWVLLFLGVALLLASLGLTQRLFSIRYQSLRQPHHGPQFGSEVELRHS

NC(N)=NCCC[C@@H](N)C(=O)N[C@@H](CCCN=C(N)N)C(=O)N1CCC[C@H]1C(=O)N1C[C@H](O)C[C@H]1C(=O)NCC(=O)N[C@@H](Cc1cccs1)C(=O)N[C@@H](CO)C(=O)N1Cc2ccccc2C[C@@H]1C(=O)N1[C@H](C(=O)N[C@@H](CCCN=C(N)N)C(=O)O)C[C@@H]2CCCC[C@@H]21 [HOE140, D-Arg(Hyp^3, Thi^5, D-Tic^7, Oic^8)BK]
Body weight [1]: No changes of body weight

N=C(N)NCCC[C@H](N)C(=O)N1CCC[C@H]1C(=O)N1CCC[C@H]1C(=O)NCC(=O)N[C@@H](Cc1ccccc1)C(=O)N[C@@H](CO)C(=O)N1CCC[C@H]1C(=O)N[C@@H](Cc1ccccc1)C(=O)O [desArg^9BK, Arg-Pro-Pro-G1y-Phe-Ser-Pro-Phe]
Enhancement of response in diabetic tissue compared to normal portal veins (BK-B1 receptor): 118% | Metabolism of naturally-occurring kinins by ACE [2]: fully metabolised
